From patent US6022969A, “Compositions and methods for treating mast-cell mediated conditions” (AXYS Pharmaceuticals, Inc., priority 1995, dated 2000)

molecular target: tryptase; experiment: In vitro tryptase inhibition assay (hydrolysis of tosyl-Gly-Pro-Lys-p-nitroanilide); format: biochemical, human; conditions: tosyl-Gly-Pro-Lys-p-nitroanilide 0.5 mM, pH 8.2, 1 h pre-incubation, room temperature
Method: The compounds to be assayed (approximately 1 mg) were dissolved in 200 μL dimethylsulfoxide (DMSO) and diluted 1:10 into buffer containing 50 millimolar (mM) Tris-HCl (pH 8.2), 100 mM sodium chloride, and 0.05% polyoxyethylenesorbitan monolaurate (Tween-20®, available from Sigma, St. Louis, Mo.). Seven additional threefold dilutions were made from the initial dilution into the same buffer supplemented with 10% DMSO. Aliquots (50 microliters, μL) from each of the eight dilutions in the series were transferred to individual wells in a 96-well U-bottom microtiter plate. 25 μL of a stock solution of tryptase was added to each well and the samples were mixed and incubated for one hour at room temperature (tryptase was purified from human lung and skin tissue preparations, HMC-1 (human mast cell line) and also obtained from commercial sources (ICN Biomedicals, Irvine, Calif.; Athens Research & Technology, Athens, Ga.)). […] The tryptase solution was prepared by placing 60 μg/mL of tryptase into solution with 10 mM MES (2-[N-Morpholino]ethane sulfonic acid) containing 2 mM CaCl2, 20% glycerol and 50 μg/mL heparin. The enzyme reaction was initiated with the addition of the synthetic tripeptide substrate, tosyl-Gly-Pro-Lys-p-nitroanilide (available from Sigma, 25 μL; 0.5 mM final concentration).
However, Ki ' varies with the enzyme concentration used in the enzyme assay. […] The y-intercept of a replot of IC50 (ordinate) versus tryptase concentration (abscissa) produces a value for Ki '.
The inhibition constants (Ki ', micromolar (μM)) were determined for the compounds of the present invention.

Ki | Compound
15.8 nM | NC[C@H]1CC[C@H](CNC(=O)N2CCN(C(=O)O[C@H]3CCC[C@@H](OC(=O)N4CCN(C(=O)NC[C@H]5CC[C@H](CN)CC5)CC4)CCC3)CC2)CC1 [Compound 4, cis-1,5-Cyclooctylene bis[4-((trans-4-aminomethylcyclohexylenemethylene)carbamoyl)-1-piperazinecarboxylate]]
9 nM | NCCC1CCC(C(=O)N2CCN(C(=O)O[C@H]3CCC[C@@H](OC(=O)N4CCN(C(=O)C5CCC(CCN)CC5)CC4)CCC3)CC2)CC1 (stereo partly drawn) [Compound 22, cis-1,5-cyclooctylene bis{4-[4-(2-aminoethyl)cyclohexylcarbonyl]-1-piperazinecarboxylate]]
1100 nM | CN(CCOC(=O)NC[C@H]1CC[C@H](CN)CC1)C(=O)O[C@H]1CCC[C@@H](OC(=O)N(C)CCOC(=O)NC[C@H]2CC[C@H](CN)CC2)CCC1 [Compound 41, cis-1,5-cyclooctylene bis[N-2-(trans-4-aminomethylcyclohexylmethylaminoformyloxy)ethyl-N-methylaminocarboxylate}]
12.2 nM | cis-1,5-tetracyclo[3.3.1.1^3,7 ]decylenedimethylene bis[4-(4-guanidinobenzylcarbamoyl)-1-piperazinecarboxaldehyde] [Compound 32]
125 nM | NCCC=CCNC(=O)N1CCN(C(=O)O[C@H]2CCC[C@@H](OC(=O)N3CCN(C(=O)NCC=CCCN)CC3)CCC2)CC1 [Compound 36, cis-1,5-cyclooctylene bis[4-(5-amino-2-pentenylcarbamoyl)-1-piperazinecarboxylate]]
1440 nM | NCCCCCCNC(=O)N1CCN(C(=O)O[C@H]2CCC[C@@H](OC(=O)N3CCN(C(=O)NCCCCCCN)CC3)CCC2)CC1 [Compound 35, cis-1,5-cyclooctylene bis[4-(6-aminohexylcarbamoyl)-1-piperazinecarboxylate]]
5 nM | N=C(N)N1CCC(CC(=O)N2CCN(C(=O)O[C@H]3CCC[C@@H](OC(=O)N4CCN(C(=O)CC5CCN(C(=N)N)CC5)CC4)CCC3)CC2)CC1 [Compound 7, cis-1,5-cyclooctylene bis{[4-(1-amidinopiperid-4-ylacetyl)-1-piperazinecarboxylate]}]
302 nM | NCC12CCC(CNC(=O)N3CCN(C(=O)O[C@H]4CCC[C@@H](OC(=O)N5CCN(C(=O)NCC67CCC(CN)(CC6)CC7)CC5)CCC4)CC3)(CC1)CC2 (relative stereo) [Compound 15, cis-1,5-cyclooctylene[4-(4-aminomethylbicyclo[2.2.2]oct-1-ylmethylcarbamoyl)-1-piperazinecarboxylate]]
0.81 nM | NCC[C@H]1CC[C@H](CC(=O)N2CCN(C(=O)O[C@H]3CCC[C@@H](OC(=O)N4CCN(C(=O)C[C@H]5CC[C@H](CCN)CC5)CC4)CCC3)CC2)CC1 [Compound 20, cis-1,5-cyclooctylene bis{4-[trans-4-(2-aminoethyl)cyclohexylacetyl]-1-piperazinecarboxylate}]
0.48 nM | N=C(N)Nc1ccc(CNC(=O)N2CCN(C(=O)O[C@H]3CCC[C@@H](OC(=O)N4CCN(C(=O)NC[C@H]5CC[C@H](CN)CC5)CC4)CCC3)CC2)cc1 [Compound 52]
44 nM | N=C(N)Nc1ccc(CNC(=O)N2CCN(C(=O)O[C@H]3CCC[C@@H](OC(=O)N4CCN(C(=O)NCCCN)CC4)CCC3)CC2)cc1 [Compound 53, cis-5-[4-(3-aminopropylcarbamoyl)piperazin-1-ylformyloxy]cyclooctyl 4-(4-guanidinobenzylcarbamoyl)-1-piperazinecarboxylate]
26.6 nM | N=C(N)Nc1ccc(CNC(=O)N2CCN(C(=O)OCC34CC5CC(C3)CC(COC(=O)N3CCN(C(=O)NCc6ccc(NC(=N)N)cc6)CC3)(C5)C4)CC2)cc1 [Compound 31, cis-1,5-tetracyclo[3.3.1.1^3,7]decylenedimethylene bis[4-(4-guanidinobenzylcarbamoyl)-1-piperazinecarboxylate]]
0.37 nM | N=C(N)c1ccc(CCC(=O)N2CCN(C(=O)O[C@H]3CCC[C@@H](OC(=O)N4CCN(C(=O)CCc5ccc(C(=N)N)cc5)CC4)CCC3)CC2)cc1 [Compound 6, cis-1,5-cyclooctylene bis{4-[3(4-amidinophenyl)propionoyl]-1-piperazinecarboxylate}]

The remaining lines, values behind:

Compound | Ki
CC(CN)c1ccc(C(=O)N2CCN(C(=O)O[C@H]3CCC[C@@H](OC(=O)N4CCN(C(=O)c5ccc(C(C)CN)cc5)CC4)CCC3)CC2)cc1 (stereo partly drawn) [Compound 18, cis-1,5-cyclooctylene bis{4-[4-(1-aminoprop-2-yl)benzoyl]-1-piperazinecarboxylate}] | 713 nM
N=C(N)Nc1ccc(CNC(=O)N2CCN(C(=O)O[C@H]3CCC[C@@H](OC(=O)N4CCN(C(=O)NCCCCCN)CC4)CCC3)CC2)cc1 [Compound 50, cis-5-[4-(5-aminopentylcarbamoyl)piperazin-1-ylformyloxy]cyclooctyl 4-(4-guanidinobenzylcarbamoyl)-1-piperazinecarboxylate] | 0.45 nM
NCC1CCN(C(=O)NCC2CCN(C(=O)O[C@H]3CCC[C@@H](OC(=O)N4CCC(CNC(=O)N5CCC(CN)CC5)CC4)CCC3)CC2)CC1 [Compound 26, cis-1,5-cyclooctylene bis{4-[4-(aminomethyl)piperid-1-ylcarbonylaminomethyl)-1-piperidinecarboxylate}] | 332 nM
NC[C@H]1CC[C@H](NC(=O)OC2CCN(C(=O)O[C@H]3CCC[C@@H](OC(=O)N4CCC(OC(=O)N[C@H]5CC[C@H](CN)CC5)CC4)CCC3)CC2)CC1 [Compound 39, cis-1,5-cyclooctylene bis[4-(trans-4-aminomethylcyclohexylaminoformyloxy)-1-piperidinecarboxylate]] | 858 nM
N=C(N)Nc1ccc(CNC(=O)N2CCN(C(=O)OCC34CCC(COC(=O)N5CCN(C(=O)NCc6ccc(NC(=N)N)cc6)CC5)(CC3)CC4)CC2)cc1 [Compound 47, 1,4-bicyclo[2.2.2]octylenedimethylene bis[4-(4-guanidinobenzylcarbamoyl)-1-piperazinecarboxylate]] | 0.42 nM
N=C(N)C1CCN(C(=O)NCC2CCN(C(=O)O[C@H]3CCC[C@@H](OC(=O)N4CCC(CNC(=O)N5CCC(C(=N)N)CC5)CC4)CCC3)CC2)CC1 [Compound 45, cis-1,5-cyclooctylene bis[4-(4-amidinopiperid-1-ylcarbonylaminomethyl)-1-piperidinecarboxylate]] | 114 nM
CN(CCOC(=O)N[C@H]1CC[C@H](CN)CC1)C(=O)O[C@H]1CCC[C@@H](OC(=O)N(C)CCOC(=O)N[C@H]2CC[C@H](CN)CC2)CCC1 [Compound 40, cis-1,5-cyclooctylene bis[N-2-(trans-4-aminomethylcyclohexylaminoformyloxy)ethyl-N-methylaminocarboxylate]] | 1390 nM
N=C(N)Nc1ccc(C(=O)NCC2CCN(C(=O)O[C@H]3CCC[C@@H](OC(=O)N4CCC(CNC(=O)c5ccc(NC(=N)N)cc5)CC4)CCC3)CC2)cc1 [Compound 48, cis-1,5-cyclooctylene bis[4-(4-guanidinophenylcarbonylaminomethyl)-1-piperidinecarboxylate]] | 2300 nM
NCCC1CCN(C(=O)N2CCN(C(=O)O[C@H]3CCC[C@@H](OC(=O)N4CCN(C(=O)N5CCC(CCN)CC5)CC4)CCC3)CC2)CC1 [Compound 19] | 1510 nM
NCCCCCNC(=O)N1CCN(C(=O)O[C@H]2CCC[C@@H](OC(=O)N3CCN(C(=O)NCCCCCN)CC3)CCC2)CC1 [Compound 34, cis-1,5-cyclooctylene bis[4-(5-aminopentylcarbamoyl)-1-piperazinecarboxylate]] | 11 nM
NCCc1ccc(C(=O)N2CCN(C(=O)O[C@H]3CCC[C@@H](OC(=O)N4CCN(C(=O)c5ccc(CCN)cc5)CC4)CCC3)CC2)cc1 [Compound 17, cis-1,5-cyclooctylene bis{4-[4-(2-aminoethyl)benzoyl]-1-piperazinecarboxylate]] | 4.9 nM
